{"source": "ChEMBL document CHEMBL4321843", "about": "“Discovery of small-molecule candidates against inflammatory bowel disease” (Eur J Med Chem, 2020)", "type_in_all_cases": "functional", "key": {"Mus musculus [1]": {"system": "Mus musculus", "experiment": "Anti-colitis activity in C57BL/6 (B6) mouse model of DSS-induced colitis assessed as disease activity index at 100 mg/kg, ig pretreated for 3 days followed by DSS treatment for 7 days (reference value: 5.67 +/- 1.03)"}, "Rattus norvegicus [2]": {"system": "Rattus norvegicus", "experiment": "Anti-colitis activity in Sprague-Dawley rat model of acetic acid-induced colitis assessed as histological scores at 50 mg/kg, po administered for 7 consecutive days and measured on day 8 (reference value: 9.3 +/- 2.8)"}, "Rattus norvegicus [3]": {"system": "Rattus norvegicus", "experiment": "Anti-colitis activity in Sprague-Dawley rat model of acetic acid-induced colitis assessed as disease activity index at 50 mg/kg, po administered for 7 consecutive days and measured on day 8 (reference value: 3.9 +/- 0.4)"}, "Rattus norvegicus [4]": {"system": "Rattus norvegicus", "experiment": "Anti-colitis activity in Sprague-Dawley rat model of acetic acid-induced colitis assessed as colon mucosa damage index at 50 mg/kg, po administered for 7 consecutive days and measured on day 8 (reference value: 3.3 +/- 0.6)"}, "Rattus norvegicus [5]": {"system": "Rattus norvegicus", "experiment": "Antiinflammatory activity in Sprague-Dawley rat model of acetic acid-induced colitis assessed as reduction in IFNgamma level in serum at 50 mg/kg, po administered for 7 consecutive days and measured on day 8 by ELISA method"}, "Mus musculus [6]": {"system": "Mus musculus", "experiment": "Anti-colitis activity in ICR mouse model of DSS-induced colitis assessed as inhibition of DSS-induced colorectum shortening at 6 mg, po for 14 days relative to control"}, "Mus musculus [7]": {"system": "Mus musculus", "experiment": "Anti-colitis activity in ICR mouse model of DSS-induced colitis assessed as reduction in DSS-induced body weight loss at 6 mg, po for 14 days relative to control", "set-up": "scale not given: the % may be the effect or the level left"}}}
{"compound": "O=C(O)[C@H]1O[C@@H](Oc2cc3oc(-c4ccccc4)cc(=O)c3c(O)c2O)[C@H](O)[C@@H](O)[C@@H]1O", "note": "[BAICALIN]", "values": [{"measurement": "Activity_index", "setting": "Mus musculus [1]", "value": 3.33}]}
{"compound": "O=C(O[C@@H]1Cc2c(O)cc(O)cc2O[C@@H]1c1cc(O)c(O)c(O)c1)c1cc(O)c(O)c(O)c1", "note": "[EPIGALOCATECHIN GALLATE]", "values": [{"measurement": "Activity", "setting": "Rattus norvegicus [2]", "value": 4.6}, {"measurement": "Activity_index", "setting": "Rattus norvegicus [3]", "value": 1.1}, {"measurement": "Activity_index", "setting": "Rattus norvegicus [4]", "value": 1.5}, {"measurement": "Activity", "setting": "Rattus norvegicus [5]", "value": 33.3, "unit": "pg/mL"}]}
{"compound": "O=c1c(O)c(-c2ccc(O)c(O)c2)oc2cc(O)cc(O)c12", "note": "[QUERCETIN]", "values": [{"measurement": "inhibition (INH)", "setting": "Mus musculus [6]", "value": 18, "unit": "%"}, {"measurement": "Activity", "setting": "Mus musculus [7]", "value": 21, "unit": "%"}]}
{"compound": "C[C@@H]1O[C@@H](OC[C@H]2O[C@@H](Oc3c(-c4ccc(O)c(O)c4)oc4cc(O)cc(O)c4c3=O)[C@H](O)[C@@H](O)[C@@H]2O)[C@H](O)[C@H](O)[C@H]1O", "note": "[RUTIN]", "values": [{"measurement": "inhibition (INH)", "setting": "Mus musculus [6]", "value": 73, "unit": "%"}, {"measurement": "Activity", "setting": "Mus musculus [7]", "value": 54, "unit": "%"}]}
